# Measurements taken from US20200172483A1, “HETEROCYCLIC SMALL MOLECULE MODULATORS OF HUMAN STING” (Curadev Pharma Limited, priority 2017, published 2020).
# Molecular target: T1, WT/R232 STING protein (Homo sapiens, UniProt Q86WV6, H232R)
# T1 construct: host or cells: HEK293T
# Assay: Luciferase reporter assay in HEK293T-hSTING-Luciferase cells (R232)
# Type: cell-based
# Conditions: 20 hr stimulation, EC50 range
# Excerpt: • a) Stable STING expressing cells—Stable HEK293T STING-expressing cell lines were generated using plasmids purchased from Invivogen, CA, USA, that contain STING cDNA cloned into the pUNO-1 vector under hEF1-HTLV promoter and containing the Blasticidin selection cassette. The plasmids hSTING (R232), hSTING (H232), hSTING (HAQ) were directly procured from Invivogen while hSTING (AQ) and hSTING (Q) were derived from hSTING (HAQ) and hSTING (R232) plasmids respectively by using a PCR based site directed mutagenesis method. These vectors were individually transfected into HEK293T cells using Lipofectamine (Invitrogen) and transfected cells were selected under Blasticidin selection. These transfected cells were further subjected to clonal selection using the limiting dilution method to obtain clonally pure populations of HEK cells transfected with each of the above mentioned human STING variants. Only those clones were selected in which ligand independent activation of STING was minimal. • b) Stable Luciferase reporter gene expressing cells—Stable HEK293T Luciferase reporter gene expressing cell lines were generated using pCDNA4 plasmids under an IRF-inducible promoter. This promoter is comprised of five tandem interferon-stimulated response elements (ISRE) fused to an ISG54 minimal promoter. This vector was transfected into HEK293T cells using Lipofectamine (Invitrogen) and transfected cells were selected under Zeocin selection. These transfected cells were further subjected to clonal selection using the limiting dilution method to obtain clonally pure populations of HEK cells transfected the Luciferase reporter construct. Only those clones were selected in which ligand independent induction of luciferase was minimal.
# 5×10^5 clonally selected HEK293T-hSTING-Luciferase cells were seeded in 384-well plates in growth medium and stimulated with novel compounds. After 20 hr of stimulation supernatant were removed and secretary reporter gene activity were measured using the Quanti-Luc detection system (Invivogen) on a Spectramax i3X luminometer.
# All compounds were first tested in a primary screen using WT/R232 STING protein to obtain a ‘fold-induction’ over baseline levels of protein activity.
# T1 sequence (Q86WV6 whole entry H232R): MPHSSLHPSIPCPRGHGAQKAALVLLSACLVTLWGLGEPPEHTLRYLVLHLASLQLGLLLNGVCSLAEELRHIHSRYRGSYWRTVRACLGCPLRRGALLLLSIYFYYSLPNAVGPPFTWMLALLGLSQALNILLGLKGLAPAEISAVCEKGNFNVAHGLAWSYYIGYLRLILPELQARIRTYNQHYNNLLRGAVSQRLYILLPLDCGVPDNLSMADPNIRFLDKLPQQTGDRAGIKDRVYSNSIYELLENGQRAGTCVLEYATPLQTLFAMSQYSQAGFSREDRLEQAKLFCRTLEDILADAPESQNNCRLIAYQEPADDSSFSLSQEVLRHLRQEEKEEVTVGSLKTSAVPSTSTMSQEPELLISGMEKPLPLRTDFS
row,SMILES,EC50
1,"O=C(NCc1ccco1)c1ccc2sc(=O)n(Cc3c(F)cccc3Cl)c2c1 [Example 201, 3-(2-chloro-6-fluorobenzyl)-N-(furan-2-ylmethyl)-2-oxo-2,3-dihydrobenzo[d]thiazole-5-carboxamide]",> 10 µM
2,"O=C(NCc1c(F)cc(F)cc1F)c1ccc2c(c1)N(Cc1c(F)cccc1Cl)C(=O)C2(O)c1ccccc1 (stereo not shown) [Example 160, 1-(2-chloro-6-fluorobenzyl)-3-hydroxy-2-oxo-3-phenyl-N-(2,4,6-trifluorobenzyl)indoline-6-carboxamide]",> 10 µM
3,"CN(C)C1(C)C(=O)N(Cc2c(F)cccc2Cl)c2cc(C(=O)NCc3c(F)cc(F)cc3F)ccc21 (stereo not shown) [Example 152, 1-(2-chloro-6-fluorobenzyl)-3-(dimethylamino)-3-methyl-2-oxo-N-(2,4,6-trifluorobenzyl)indoline-6-carboxamide]",1 to 10 µM
4,"Cc1cc(CN2C(=O)C(C)(C)c3ccc(C(=O)NCc4ccc(C)o4)cc32)ccn1 [Example 55, 3,3-dimethyl-N-((5-methylfuran-2-yl)methyl)-1-((2-methylpyridin-4-yl)methyl)-2-oxoindoline-6-carboxamide]",> 10 µM
5,"CC1(C)C(=O)N(Cc2c(F)ccc(O)c2Cl)c2cc(C(=O)NCc3c(F)cc(F)cc3F)ccc21 [Example 67, 1-(2-chloro-6-fluoro-3-hydroxybenzyl)-3,3-dimethyl-2-oxo-N-(2,4,6-trifluorobenzyl)indoline-6-carboxamide]",≤ 1 µM
6,"CC1(CC(=O)O)C(=O)N(Cc2cc(F)cc(F)c2)c2cc(C(=O)NCc3c(F)cc(F)cc3F)ccc21 (stereo not shown) [Example 169, 2-(1-(3,5-difluorobenzyl)-3-methyl-2-oxo-6-((2,4,6-trifluorobenzyl)carbamoyl)indolin-3-yl)acetic acid]",> 10 µM
7,"CC1(C)C(=O)N(Cc2cc(F)cc(F)c2)c2cc(C(=O)NCc3ccc(F)cc3)cnc21 [Example 198, 1-(3,5-difluorobenzyl)-N-(4-fluorobenzyl)-3,3-dimethyl-2-oxo-2,3-dihydro-1H-pyrrolo[3,2-b]pyridine-6-carboxamide]",1 to 10 µM
8,"CC1(C)C(=O)N(Cc2ccc(C(N)=O)cc2F)c2cc(C(=O)NCc3c(F)cc(F)cc3F)ccc21 [Example 121, 1-(4-carbamoyl-2-fluorobenzyl)-3,3-dimethyl-2-oxo-N-(2,4,6-trifluorobenzyl)indoline-6-carboxamide]",1 to 10 µM
9,"CC1C(=O)N(Cc2cc(F)cc(F)c2)c2cc(C(=O)NCc3c(F)cc(F)cc3F)ccc21 (stereo not shown) [Example 53, 1-(3,5-difluorobenzyl)-3-methyl-2-oxo-N-(2,4,6-trifluorobenzyl)indoline-6-carboxamide]",> 10 µM
10,"CC1(C)C(=O)N(Cc2cc(F)cc(F)c2)c2cc(C(=O)NCc3cccc(N=[N+]=[N-])c3)ccc21 [Example 47, N-(3-azidobenzyl)-1-(3,5-difluorobenzyl)-3,3-dimethyl-2-oxoindoline-6-carboxamide]",1 to 10 µM
11,"CC1(O)C(=O)N(Cc2ccccc2F)c2cc(C(=O)NCc3ccco3)ccc21 (stereo not shown) [Example 149, 1-(2-fluorobenzyl)-N-(furan-2-ylmethyl)-3-hydroxy-3-methyl-2-oxoindoline-6-carboxamide]",> 10 µM
12,"CC1(C)C(=O)N(Cc2nc3ccccc3o2)c2cc(C(=O)NCc3c(F)cc(F)cc3F)ccc21 [Example 101, 1-(benzo[d]oxazol-2-ylmethyl)-3,3-dimethyl-2-oxo-N-(2,4,6-trifluorobenzyl)indoline-6-carboxamide]",> 10 µM
13,CC1(O)C(=O)N(Cc2cc(F)cc(F)c2)c2cc(C(=O)NCc3c(F)cc(F)cc3F)ccc21 (stereo not shown) [Example 162],> 10 µM
14,"CC1(C)C(=O)N(Cc2cc(F)cc(F)c2)c2nc(C(=O)NCc3cc4ccncc4o3)ccc21 [Example 187, 1-(3,5-difluorobenzyl)-N-(furo[2,3-c]pyridin-2-ylmethyl)-3,3-dimethyl-2-oxo-2,3-dihydro-1H-pyrrolo[2,3-b]pyridine-6-carboxamide]",> 10 µM
15,"CC1(C)C(=O)N(Cc2cc(F)cc(F)c2)c2cc(C(=O)NCc3ccc(F)cc3F)cnc21 [Example 199, N-(2,4-difluorobenzyl)-1-(3,5-difluorobenzyl)-3,3-dimethyl-2-oxo-2,3-dihydro-1H-pyrrolo[3,2-b]pyridine-6-carboxamide]",1 to 10 µM
16,"Cc1cc(CN2C(=O)C(C)(C)c3ccc(C(=O)NCc4cc5ccccc5o4)nc32)ccn1 [Example 183, N-(benzofuran-2-ylmethyl)-3,3-dimethyl-1-((2-methylpyridin-4-yl)methyl)-2-oxo-2,3-dihydro-1H-pyrrolo[2,3-b]pyridine-6-carboxamide]",1 to 10 µM
17,"CC1(C)C(=O)N(Cc2cccc3c2OC(F)(F)O3)c2cc(C(=O)NCc3c(F)cc(F)cc3F)ccc21 [Example 105, 1-((2,2-difluorobenzo[d][1,3]dioxol-4-yl)methyl)-3,3-dimethyl-2-oxo-N-(2,4,6-trifluorobenzyl)indoline-6-carboxamide]",1 to 10 µM
18,"CC1(C)C(=O)N(Cc2cc(F)cc(F)c2)c2c1ccc(C(=O)NCc1c(F)cc(F)cc1F)c2F [Example 35, 1-(3,5-difluorobenzyl)-7-fluoro-3,3-dimethyl-2-oxo-N-(2,4,6-trifluorobenzyl)indoline-6-carboxamide]",> 10 µM
19,"CC1C(=O)N(Cc2c(F)cccc2Cl)c2cc(C(=O)NCc3c(F)cc(F)cc3F)ccc21 (stereo not shown) [Example 21, 1-(2-chloro-6-fluorobenzyl)-3-methyl-2-oxo-N-(2,4,6-trifluorobenzyl)indoline-6-carboxamide]",> 10 µM

# Results, then the molecule that gave them:
row,EC50,SMILES
1,> 10 µM,"Cc1nn(C)cc1CN1C(=O)C(C)(C)c2ccc(C(=O)NCc3c(F)cc(F)cc3F)cc21 [Example 80, 1-((1,3-dimethyl-1H-pyrazol-4-yl)methyl)-3,3-dimethyl-2-oxo-N-(2,4,6-trifluorobenzyl)indoline-6-carboxamide]"
2,1 to 10 µM,"Cc1ccc(CNC(=O)c2ccc3c(c2)N(Cc2ccccc2Cl)C(=O)C3(C)C)o1 [Example 51, 1-(2-chlorobenzyl)-3,3-dimethyl-N-((5-methylfuran-2-yl)methyl)-2-oxoindoline-6-carboxamide]"
3,> 10 µM,"Cc1nnc(CNC(=O)c2ccc3c(c2)N(Cc2cc(F)cc(F)c2)C(=O)C3(C)C)o1 [Example 29, 1-(3,5-difluorobenzyl)-3,3-dimethyl-N-((5-methyl-1,3,4-oxadiazol-2-yl)methyl)-2-oxoindoline-6-carboxamide]"
4,1 to 10 µM,"Cc1ccc(CNC(=O)c2ccc3c(c2)N(C(C)c2ccc(F)cc2)C(=O)C3(C)C)o1 (stereo not shown) [Example 123, 1-(1-(4-fluorophenyl)ethyl)-3,3-dimethyl-N-((5-methylfuran-2-yl)methyl)-2-oxoindoline-6-carboxamide]"
5,≤ 1 µM,"COc1ccc(F)c(CN2C(=O)C(C)(C)c3ccc(C(=O)NCc4c(F)cc(F)cc4F)cc32)c1Cl [Example 66, 1-(2-chloro-6-fluoro-3-methoxybenzyl)-3,3-dimethyl-2-oxo-N-(2,4,6-trifluorobenzyl)indoline-6-carboxamide]"
6,1 to 10 µM,"Cc1cnc(CNC(=O)c2ccc3c(c2)N(Cc2c(F)cccc2Cl)C(=O)C3(C)C)o1 [Example 126, 1-(2-chloro-6-fluorobenzyl)-3,3-dimethyl-N-((5-methyloxazol-2-yl)methyl)-2-oxoindoline-6-carboxamide]"
7,1 to 10 µM,"CC1(C)C(=O)N(Cc2cc(F)cc(F)c2)c2nc(C(=O)NCc3ccc(C#N)cc3)ccc21 [Example 192, N-(4-cyanobenzyl)-1-(3,5-difluorobenzyl)-3,3-dimethyl-2-oxo-2,3-dihydro-1H-pyrrolo[2,3-b]pyridine-6-carboxamide]"
8,> 10 µM,"CC1(C)C(=O)N(Cc2cc(F)cc(F)c2)c2cc(C(=O)NCc3c(F)cc(F)cc3F)ncc21 [Example 186, 1-(3,5-difluorobenzyl)-3,3-dimethyl-2-oxo-N-(2,4,6-trifluorobenzyl)-2,3-dihydro-1H-pyrrolo[3,2-c]pyridine-6-carboxamide]"
9,> 10 µM,"CC1(C)C(=O)N(Cc2c(F)cccc2Cl)c2cc(C(=O)NCc3cccc4c3OCO4)ccc21 [Example 87, N-(benzo[d][1,3]dioxol-4-ylmethyl)-1-(2-chloro-6-fluorobenzyl)-3,3-dimethyl-2-oxoindoline-6-carboxamide]"
10,> 10 µM,"CC(C)C1(O)C(=O)N(Cc2c(F)cccc2Cl)c2cc(C(=O)NCc3c(F)cc(F)cc3F)ccc21 (stereo not shown) [Example 159, 1-(2-chloro-6-fluorobenzyl)-3-hydroxy-3-isopropyl-2-oxo-N-(2,4,6-trifluorobenzyl)indoline-6-carboxamide]"
11,> 10 µM,"CC1(C)C(=O)N(Cc2cccc(F)c2)c2cc(C(=O)NCc3ccco3)ccc21 [Example 42, 1-(3-fluorobenzyl)-N-(furan-2-ylmethyl)-3,3-dimethyl-2-oxoindoline-6-carboxamide]"
12,1 to 10 µM,"CC1(C)C(=O)N(Cc2ccccn2)c2cc(C(=O)NCc3c(F)cc(F)cc3F)ccc21 [Example 99, 3,3-dimethyl-2-oxo-1-(pyridin-2-ylmethyl)-N-(2,4,6-trifluorobenzyl)indoline-6-carboxamide]"
